According to ChEMBL document CHEMBL3044687, “Microwave-assisted synthesis of some novel and potent antibacterial and antifungal compounds with biological screening” (2012):

Key:
Assay type in all cases: functional
Details in all cases: read-out: DIZ
Staphylococcus aureus [1] = assay: Antibacterial activity against Staphylococcus aureus at 100 ug/ml after 24 hr by disk diffusion method
Staphylococcus aureus [2] = assay: Antibacterial activity against Staphylococcus aureus at 50 ug/ml after 24 hr by disk diffusion method
Bacillus subtilis [3] = assay: Antibacterial activity against Bacillus subtilis at 100 ug/ml after 24 hr by disk diffusion method
Bacillus subtilis [4] = assay: Antibacterial activity against Bacillus subtilis at 200 ug/ml after 24 hr by disk diffusion method
Bacillus subtilis [5] = assay: Antibacterial activity against Bacillus subtilis at 50 ug/ml after 24 hr by disk diffusion method
Pseudomonas aeruginosa [6] = assay: Antibacterial activity against Pseudomonas aeruginosa at 100 ug/ml after 24 hr by disk diffusion method
Pseudomonas aeruginosa [7] = assay: Antibacterial activity against Pseudomonas aeruginosa at 200 ug/ml after 24 hr by disk diffusion method
Pseudomonas aeruginosa [8] = assay: Antibacterial activity against Pseudomonas aeruginosa at 50 ug/ml after 24 hr by disk diffusion method
Escherichia coli [9] = assay: Antibacterial activity against Escherichia coli at 200 ug/ml after 24 hr by disk diffusion method
Escherichia coli [10] = assay: Antibacterial activity against Escherichia coli at 50 ug/ml after 24 hr by disk diffusion method
Escherichia coli [11] = assay: Antibacterial activity against Escherichia coli at 100 ug/ml after 24 hr by disk diffusion method
Candida albicans [12] = assay: Antifungal activity against Candida albicans at 200 ug/ml after 48 hr by disk diffusion method
Aspergillus niger [13] = assay: Antifungal activity against Aspergillus niger at 50 ug/ml after 48 hr by disk diffusion method
Candida albicans [14] = assay: Antifungal activity against Candida albicans at 100 ug/ml after 48 hr by disk diffusion method
Candida albicans [15] = assay: Antifungal activity against Candida albicans at 50 ug/ml after 48 hr by disk diffusion method
Staphylococcus aureus [16] = assay: Antibacterial activity against Staphylococcus aureus at 200 ug/ml after 24 hr by disk diffusion method
Aspergillus niger [17] = assay: Antifungal activity against Aspergillus niger at 200 ug/ml after 48 hr by disk diffusion method
Aspergillus niger [18] = assay: Antifungal activity against Aspergillus niger at 100 ug/ml after 48 hr by disk diffusion method

Compound	zone of inhibition at 100 µg/mL (Staphylococcus aureus [1]) [mm]	zone of inhibition at 50 µg/mL (Staphylococcus aureus [2]) [mm]	zone of inhibition at 100 µg/mL (Bacillus subtilis [3]) [mm]	zone of inhibition at 200 µg/mL (Bacillus subtilis [4]) [mm]	zone of inhibition at 50 µg/mL (Bacillus subtilis [5]) [mm]	zone of inhibition at 100 µg/mL (Pseudomonas aeruginosa [6]) [mm]	zone of inhibition at 200 µg/mL (Pseudomonas aeruginosa [7]) [mm]	zone of inhibition at 50 µg/mL (Pseudomonas aeruginosa [8]) [mm]	zone of inhibition at 200 µg/mL (Escherichia coli [9]) [mm]	zone of inhibition at 50 µg/mL (Escherichia coli [10]) [mm]	zone of inhibition at 100 µg/mL (Escherichia coli [11]) [mm]	zone of inhibition at 200 µg/mL (Candida albicans [12]) [mm]	zone of inhibition at 50 µg/mL (Aspergillus niger [13]) [mm]	zone of inhibition at 100 µg/mL (Candida albicans [14]) [mm]	zone of inhibition at 50 µg/mL (Candida albicans [15]) [mm]	zone of inhibition at 200 µg/mL (Staphylococcus aureus [16]) [mm]	zone of inhibition at 200 µg/mL (Aspergillus niger [17]) [mm]	zone of inhibition at 100 µg/mL (Aspergillus niger [18]) [mm]
O=C1N(c2ccccc2)C(=O)C(c2ccccc2)(c2ccccc2)N1Cn1ccnc1	9	4	11	13	5	9	18	5	19	5	14	13	10	11	10	18	13	12
O=C1NC(c2ccccc2)(c2ccccc2)C(=O)N1CN1CCOCC1	6	5	12	14	4	8	14	4	17	4	10	15	10	12	10	9	12	11
O=C1NC(c2ccccc2)(c2ccccc2)C(=O)N1CNc1nccs1	10	4	11	19	5	12	20	4	24	6	15	13	11	12	11	21	11	11
O=C1NC(c2ccccc2)(c2ccccc2)C(=O)N1Cn1nnc2ccccc21	12	6	14	22	5	10	14	6	18	3	10	13	11	12	11	18	11	11
CC1(C)S[C@@H]2[C@H](NC(=O)[C@H](N)c3ccccc3)C(=O)N2[C@H]1C(=O)O [AMPICILLIN]	14	9	16	26	10	14	23	9	29	10	18					23		
O=C1N(c2ccccc2)C(=O)C(c2ccccc2)(c2ccccc2)N1CN1CCOCC1	6	5	9	11	4	6	11	4	15	4	8	15	10	12	10	9	12	11
COC1=CC(=O)C[C@@H](C)[C@]12Oc1c(Cl)c(OC)cc(OC)c1C2=O [GRISEOFULVIN]												40	21	25	18		40	24
